Entries after “also recorded” stand apart in the source; their conditions may differ. Starred links: 1 amine or outer side, 2 acyl side, 3 side chain; linkers in the order of their positions; H or OH if unused. Non-standard residues stand in square brackets, D forms with d. Residues, ends and D or L forms follow the SMILES beside them. Groups on a side chain read outwards from the residue. ξ: configuration not given here. *: point of attachment. Oic(3aξ,7aξ) = O=C(O)[C@@H]1CC2CCCCC2N1; hArg = N=C(N)NCCCC[C@H](N)C(=O)O; X1 = N=C(N)NCCCC[C@H](N)CN*; X3 = N=C(N)NCCC[C@H](N)CN*; X2 = N=C(N)NCC[C@H](N)CN*; Orn = NCCC[C@H](N)C(=O)O; Dab = NCC[C@H](N)C(=O)O; CO = O=C([*:1])[*:2]

Twelve compounds from paper PMC7793531 (International Journal of Molecular Sciences, 2020) can be followed below.

Data set [1] has as its target T1, VEGF-A165/NRP-1 complex (Homo sapiens, UniProt O14786).
T1 construct: purchased R&D Systems
T1 sequence (O14786 22-641 limits assumed): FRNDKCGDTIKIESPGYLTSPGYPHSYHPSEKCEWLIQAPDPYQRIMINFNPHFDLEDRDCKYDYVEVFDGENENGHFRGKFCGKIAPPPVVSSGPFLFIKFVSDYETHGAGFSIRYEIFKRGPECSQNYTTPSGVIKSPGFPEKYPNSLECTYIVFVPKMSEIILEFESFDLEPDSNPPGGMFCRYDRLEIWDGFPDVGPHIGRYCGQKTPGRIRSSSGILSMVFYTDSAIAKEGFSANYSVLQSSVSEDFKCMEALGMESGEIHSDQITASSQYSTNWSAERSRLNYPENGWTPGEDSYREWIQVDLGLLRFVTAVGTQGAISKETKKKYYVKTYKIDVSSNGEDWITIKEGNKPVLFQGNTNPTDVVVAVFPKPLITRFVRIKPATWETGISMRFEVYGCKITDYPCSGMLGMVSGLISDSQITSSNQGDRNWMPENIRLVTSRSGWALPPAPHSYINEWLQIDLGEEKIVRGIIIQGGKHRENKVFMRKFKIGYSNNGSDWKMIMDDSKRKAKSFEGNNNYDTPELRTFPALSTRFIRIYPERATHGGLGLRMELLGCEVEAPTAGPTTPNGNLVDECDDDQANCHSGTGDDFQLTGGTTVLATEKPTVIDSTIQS
The data set is described as follows: Competitive ELISA-like assay, inhibition of bt-VEGF-A165 binding to immobilized NRP-1. The note with it: recombinant human NRP-1, bt-VEGF-A165, chemiluminescence; read-out: IC50, VEGF-A165/NRP-1 complex inhibitory effect. As for the experimental part:
Inhibitory activity of urea–peptide hybrids against VEGF-A165/NRP-1 complex formation was assessed with a screening ELISA-like assay. NRP-1 was immobilized on microplate wells by simple adsorption and urea–peptide hybrids competed for NRP-1 with biotinylated VEGF-A165 (bt-VEGF-A165). The amount of receptor bound bt-VEGF-A165 was visualized by its interaction with the streptavidin–horseradish peroxidase conjugate (strep-HRP) and the chemiluminescent substrate. The first analyzed group of compounds were analogues 1–3 with the urea bond between L1 and L2. […] The best hybrid in this group was compound 3, which had Lys^U (gDab) branching (where “g” corresponds to guanidinium group), but its IC50 value decreased only 2-fold. Therefore, we assume that no additional interactions between urea bond and the surface of the protein occurred. […] In the case of urea–peptide hybrids, the urea bond might be capable of forming additional hydrogen bonds with protein residues on the surface of NRP-1. The affinity of compounds may conceivably be affected by the colocation of the urea bond and the free amino group of hArg in the branching. In addition, for compounds 4–6, we can observe that decreasing the distance between the free amino group in the main chain and the urea bond in the branching has a positive effect on compounds’ affinity for NRP-1.
This method was previously described for NRP-1 [44, 45, 46]. Briefly, overnight coating at 4 °C of the flat bottom surface of a 96-well plate with 100 μL (200 ng/well) recombinant human NRP-1, NRP-2, VEGFR-1 or VEGFR-2 was followed by non-specific interactions blocking using 0.5% bovine serum albumin (BSA) in PBS. Next, 50 µL of urea–peptide hybrid in PBS and 50 µL (400 ng/mL) of human (bt)-VEGF-A165 in PBS containing 4 µg/mL of heparin were added respectively. Plates were incubated for 2 h at RT, and then washed and treated with streptavidin-horseradish peroxidase conjugate in PBS (1:8000). Next, 100 µL chemiluminescent substrate was added, and luminescence was quantified using Tecan Infinite F200Pro microplate reader (Männedorf, Switzerland). In a positive control (P) only (bt)-VEGF-A165 was present in wells. Not coated by receptor wells were treated as a negative control (N). Percentages of inhibition were calculated by the following formula:100% − [[(S − N)/(P − N)]∙100%](1) where S is the signal intensity measured in wells with urea–peptide hybrid. The IC50 of each urea–peptide hybrid was calculated using the nonlinear regression function with GraphPad Prism Version-5.01 (GraphPad Software, San Diego, CA, USA). Data are presented as log (inhibitor) versus normalized response-variable slope (Figure S16). Data are the means ± SEMs of two or three independent experiments, each performed in triplicate.
(ELISA stands for enzyme-linked immunosorbent assay.)

Data set [2] can be described thus: In vitro enzymatic stability in human blood serum (LC-SWATH-MS). Format: in vitro ADME. Particulars: human blood serum (pooled from four healthy persons), 37 °C. As for the experimental part:
Rapid renal clearance and enzymatic degradation are classified as most important disadvantages of peptides as drugs. Covalent linkage to plasma proteins or chemical modifications, including amide bond modifications, might improve their half-lives. We performed proteolytic stability studies in human blood serum to investigate whether the introduction of urea bonds affected the half-lives of compounds from each of synthesized group of hybrids. Compounds 3, 6 and 7 were incubated with human serum at 37 °C. Samples were taken at different time intervals and analyzed using LC-SWATH-MS [88, 89, 90]. […] Hybrids 6 and 7 were stable toward enzymatic degradation, with 50% of each compound still being intact after 96 h (Figure 5). […] Overall, it can be concluded that the substitution of an amide bond with a urea bond has a positive effect on the proteolytic stability of the examined inhibitors.
The study was conducted in full accordance with ethical principles in accordance with the ICH E6 (R2) Guideline for Good Clinical Practice and the Code of Good Customs in Science developed by the Polish Academy of Sciences. Signed consent for using serum was obtained from volunteers. The Rector’s Commission for Ethics of Scientific Research with Human Participation, University of Warsaw, Warsaw, Poland gave the ethical approval (approval number 51/2020). Human blood from four healthy persons was directly drawn into evacuated tubes and left undisturbed at room temperature for 1 h to clot. Tubes were centrifuged at 2500× g for 10 min to prevent possible platelet activation. Serum was pipetted out of the blood collection tubes, pooled and collected in microtubes.
A degradation assay was adapted from a method described previously. Human blood serum was preactivated in Eppendorf ThermoMixer® Comfort (Hamburg, Germany) at 37 °C for 20 min (350 rpm). Next, 20 μL of aqueous urea–peptide hybrid stock solution was added to give ∼750 μg/mL final compound concentration, and incubation was continued. At selected time intervals, 50 μL of the mixture was collected and quenched by adding 200 μL of ACN:H2O:FA mixture (89:10:1, v:v:v). The obtained suspension was vortexed for 1 min (3000 min^−1) and centrifuged for 10 min in 4 °C (11,000× g). 100 μL of supernatant was collected and lyophilized. The samples reconstituted in 1 mL of 10 mM ammonium formate with 0.1% FA were subjected to LC-MS. Relative concentration at time intervals was calculated using peak area of either individual or most intense fragment of compound of interest. Analyst software version 1.7.1 was used for data acquisition, Peak View 2.2 and MultiQuant 2.1 (Sciex, ON) were used for data processing. Detailed analytical data can be found in Supplementary Materials (Figures S17–S45). […]

Data set [3] can be described thus: Human blood serum. Particulars: 37 °C, up to 96 h.

For the compound `N=C(N)NCCCC[C@H](N)C(=O)NCC[C@H](N)CNC(=O)N[C@@H](CCN)C(=O)N1C2CCCCC2C[C@H]1C(=O)N[C@@H](CCCNC(=N)N)C(=O)O` (some centres unmarked) [Compound 1], the IC50 in data set [1] was determined as 1.8 µM.

As for `N=C(N)NCCC[C@H](NC(=O)[C@@H]1CC2CCCCC2N1C(=O)[C@H](CCN)NC(=O)NC[C@@H](N)CCCNC(=O)[C@@H](N)CCCNC(=N)N)C(=O)O` (some centres unmarked) [Compound 2], the IC50 in data set [1] came to 2.1 µM.

`N=C(N)NCCC[C@H](NC(=O)[C@@H]1CC2CCCCC2N1C(=O)[C@H](CCN)NC(=O)NC[C@@H](N)CCCCNC(=O)[C@@H](N)CCNC(=N)N)C(=O)O` (some centres unmarked) [Compound 3]: the remaining at 24 h in data set [2] (after 24 h, read-out: initial substrate concentration remaining) was ~25%. For the same compound, in data set [1], the IC50 stood at 1.2 µM.

As for `N=C(N)NCCC[C@H](NC(=O)[C@@H]1CC2CCCCC2N1C(=O)[C@H](CCN)NC(=O)[C@@H](N)CCCCNC(=O)NC[C@@H](N)CCNC(=N)N)C(=O)O` (some centres unmarked) [Compound 4] (H-K([CO-X2])[Dab][Oic(3aξ,7aξ)]R-OH), the IC50 in data set [1] was 0.49 µM.

Turning to `N=C(N)NCCC[C@H](N)CNC(=O)NCCC[C@H](N)C(=O)N[C@@H](CCN)C(=O)N1C2CCCCC2C[C@H]1C(=O)N[C@@H](CCCNC(=N)N)C(=O)O` (some centres unmarked) [Compound 5] (H-[Orn]([CO-X3])[Dab][Oic(3aξ,7aξ)]R-OH), in data set [1], the IC50 was 0.36 µM.

As to `N=C(N)NCCC[C@H](N)CNC(=O)NC[C@H](N)CNC(=O)N[C@@H](CCN)C(=O)N1C2CCCCC2C[C@H]1C(=O)N[C@@H](CCCNC(=N)N)C(=O)O` (some centres unmarked) [Compound 7], the remaining at 96 h in data set [2] (after 96 h, read-out: compound still intact) came to 50%. For the same compound, the IC50 in data set [1] turned out to be 2.1 µM.

Take `N=C(N)NCCC[C@H](NC(=O)[C@@H]1CC2CCCCC2N1C(=O)[C@H](CCN)NC(=O)NC[C@@H](N)CCNC(=O)NC[C@@H](N)CCNC(=N)N)C(=O)O` (some centres unmarked) [Compound 8]: in data set [1], the IC50 was 2.1 µM.

For the compound `N=C(N)NCCC[C@H](NC(=O)[C@@H]1CC2CCCCC2N1C(=O)[C@H](CCN)NC(=O)NC[C@@H](N)CCCNC(=O)NC[C@@H](N)CNC(=N)N)C(=O)O` (some centres unmarked) [Compound 9], the IC50 in data set [1] worked out at 1.8 µM.

For the compound H2N-DapU(ArgU)-Dab-Oic-Arg-OH, in data set [3], the cleaved bond entry is “OicL3-ArgL4” and the not cleaved entry is reported as “urea bonds remained intact within the monitored time of the experiment”.

On to H2N-LysU(gDab)-Dab-Oic-Arg-OH, for which, in data set [3], the cleaved bond entry was “gDabL1'-Lys^UL1; also recorded: OicL3-ArgL4”, the fragment found result is reported as “C25H49N10O5+ (RT 5.43 min)” and the not cleaved result is on record as “urea bonds remained intact within the monitored time of the experiment”.

Regarding “H-Dab(hArg^U)Dab-Oic-Arg-OH (H-[Dab]([CO-X1])[Dab][Oic(3aξ,7aξ)]R-OH; SMILES N=C(N)NCCCC[C@H](N)CNC(=O)NCC[C@H](N)C(=O)N[C@@H](CCN)C(=O)N1C2CCCCC2C[C@H]1C(=O)N[C@@H](CCCNC(=N)N)C(=O)O)”, in data set [3], the cleaved bond entry is on record as “OicL3-ArgL4; also recorded: DabL1-DabL2”, the fragment found entry was “C25H49N10O5+ (RT 5.36/5.72 min); also recorded: C25H46N10O4+ (RT 6.44/6.64 min); also recorded: C19H36N7O4+ (RT 3.53 min); also recorded: C12H27N7O3+ (RT 1.21 min)” and the not cleaved entry is reported as “urea bonds remained intact within the monitored time of the experiment”.

As to “Lys(hArg)-Dab-Oic-Arg (H-K(hArg)[Dab][Oic(3aξ,7aξ)]R-OH)”, in data set [3], the cleaved bond entry is given as “hArgL1'-LysL1, major; also recorded: LysL1-DabL2; also recorded: OicL3-ArgL4” and the fragment found result is given as “C25H48N9O5+ (RT 2.87 min); also recorded: C19H36N7O4+ (RT 3.54 min)”.
